Results from ChEMBL document CHEMBL1201862, “PubChem BioAssay data set” (2004).
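Tested at 5 concentrations; 48 h exposure; 96-well plates; endpoints linearly interpolated, else capped at highest concentration. GI50 = concentration required for 50% inhibition of growth.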 Activity calls are given as the source filed them. Cut-off read from the data, not from the text of the source: active = GI50 up to about 1.1 µM and inactive = higher.

How the values were obtained:
Assay in all cases: NCI-60 cell line screen, 48 h
HOP-18 = test system: HOP-18
HT-29 = test system: HT-29
SN12C = test system: SN12C
SF-539 = test system: SF-539
TK-10 = test system: TK-10
M19-MEL = test system: M19-MEL
DMS-273 = test system: DMS-273
IGROV-1 = test system: IGROV-1
HL-60 = test system: HL-60
SK-MEL-28 = test system: SK-MEL-28
A549 = test system: A549
UO-31 = test system: UO-31
XF498 = test system: XF498
A498 = test system: A498
RXF 393 = test system: RXF 393
M14 = test system: M14
CAKI-1 = test system: CAKI-1
OVCAR-3 = test system: OVCAR-3
SK-MEL-5 = test system: SK-MEL-5
NCI-H226 = test system: NCI-H226
EKVX = test system: EKVX
SNB-19 = test system: SNB-19
NCI-H460 = test system: NCI-H460
ACHN = test system: ACHN
LXFL 529 = test system: LXFL 529
UACC-257 = test system: UACC-257
SW-620 = test system: SW-620
COLO 205 = test system: COLO 205
KM-20L2 = test system: KM-20L2
CCRF-CEM = test system: CCRF-CEM
K562 = test system: K562
NCI-H23 = test system: NCI-H23
RXF 631 = test system: RXF 631
SK-OV-3 = test system: SK-OV-3
LOX IMVI = test system: LOX IMVI
Malme-3M = test system: Malme-3M
SF-295 = test system: SF-295
SNB-75 = test system: SNB-75
SNB-78 = test system: SNB-78
HCT-15 = test system: HCT-15
SK-MEL-2 = test system: SK-MEL-2
HCC 2998 = test system: HCC 2998
MOLT-4 = test system: MOLT-4
HCT-116 = test system: HCT-116
OVCAR-5 = test system: OVCAR-5
DLD-1 = test system: DLD-1
UACC-62 = test system: UACC-62
RPMI-8226 = test system: RPMI-8226
U-251 = test system: U-251
SF-268 = test system: SF-268
OVCAR-4 = test system: OVCAR-4
OVCAR-8 = test system: OVCAR-8
DMS-114 = test system: DMS-114
786-0 = test system: 786-0
KM12 = test system: KM12
NCI-H522 = test system: NCI-H522
SR = test system: SR
HOP-92 = test system: HOP-92
HOP-62 = test system: HOP-62

CC(C(=O)c1ccc(Cl)cc1)/C(=N/NC(=O)NN)C(=O)Nc1cccc(C(F)(F)F)c1 (stereo not given)
GI50 (HOP-18): 56.5 µM (inactive)
GI50 (HT-29): > 100 µM (inactive)
GI50 (SN12C): > 100 µM (inactive)
GI50 (SF-539): > 100 µM (inactive)
GI50 (TK-10): > 100 µM (inactive)
GI50 (M19-MEL): > 100 µM (inactive)
GI50 (DMS-273): > 100 µM (inactive)
GI50 (IGROV-1): > 100 µM (inactive)
GI50 (HL-60): > 100 µM (inactive)
GI50 (SK-MEL-28): > 100 µM (inactive)
GI50 (A549): > 100 µM (inactive)
GI50 (UO-31): > 100 µM (inactive)
GI50 (XF498): > 100 µM (inactive)
GI50 (A498): > 100 µM (inactive)
GI50 (RXF 393): 22.8 µM (inactive)
GI50 (M14): > 100 µM (inactive)
GI50 (CAKI-1): > 100 µM (inactive)
GI50 (OVCAR-3): > 100 µM (inactive)
GI50 (SK-MEL-5): > 100 µM (inactive)
GI50 (NCI-H226): > 100 µM (inactive)
GI50 (EKVX): > 100 µM (inactive)
GI50 (SNB-19): > 100 µM (inactive)
GI50 (NCI-H460): > 100 µM (inactive)
GI50 (ACHN): > 100 µM (inactive)
GI50 (LXFL 529): > 100 µM (inactive)
GI50 (UACC-257): > 100 µM (inactive)
GI50 (SW-620): > 100 µM (inactive)
GI50 (COLO 205): > 100 µM (inactive)
GI50 (KM-20L2): > 100 µM (inactive)
GI50 (CCRF-CEM): > 100 µM (inactive)
GI50 (K562): > 100 µM (inactive)
GI50 (NCI-H23): > 100 µM (inactive)
GI50 (RXF 631): > 100 µM (inactive)
GI50 (SK-OV-3): > 100 µM (inactive)
GI50 (LOX IMVI): > 100 µM (inactive)
GI50 (Malme-3M): > 100 µM (inactive)
GI50 (SF-295): > 100 µM (inactive)
GI50 (SNB-75): > 100 µM (inactive)
GI50 (SNB-78): > 100 µM (inactive)
GI50 (HCT-15): > 100 µM
GI50 (SK-MEL-2): > 100 µM (inactive)
GI50 (HCC 2998): > 100 µM (inactive)
GI50 (MOLT-4): > 100 µM (inactive)
GI50 (HCT-116): > 100 µM (inactive)
GI50 (OVCAR-5): > 100 µM (inactive)
GI50 (DLD-1): > 100 µM (inactive)
GI50 (UACC-62): > 100 µM (inactive)
GI50 (RPMI-8226): > 100 µM (inactive)
GI50 (U-251): > 100 µM (inactive)
GI50 (SF-268): > 100 µM (inactive)
GI50 (OVCAR-4): > 100 µM (inactive)
GI50 (OVCAR-8): > 100 µM (inactive)
GI50 (DMS-114): > 100 µM (inactive)
GI50 (786-0): > 100 µM (inactive)

CC(C)C1COC(C(C)(C)C2=N[C@@H](C(C)C)CO2)=N1 (stereo not given in full)
GI50 (HOP-18): > 100 µM (inactive)
GI50 (HT-29): > 100 µM (inactive)
GI50 (SN12C): > 100 µM (inactive)
GI50 (SF-539): > 100 µM (inactive)
GI50 (TK-10): > 100 µM (inactive)
GI50 (KM12): > 100 µM (inactive)
GI50 (M19-MEL): > 100 µM (inactive)
GI50 (DMS-273): > 100 µM (inactive)
GI50 (IGROV-1): > 100 µM (inactive)
GI50 (HL-60): > 100 µM (inactive)
GI50 (SK-MEL-28): > 100 µM (inactive)
GI50 (A549): > 100 µM (inactive)
GI50 (UO-31): > 100 µM (inactive)
GI50 (XF498): > 100 µM (inactive)
GI50 (RXF 393): > 100 µM (inactive)
GI50 (M14): > 100 µM (inactive)
GI50 (OVCAR-3): > 100 µM (inactive)
GI50 (SK-MEL-5): > 100 µM (inactive)
GI50 (NCI-H226): > 100 µM (inactive)
GI50 (EKVX): > 100 µM (inactive)
GI50 (SNB-19): > 100 µM (inactive)
GI50 (NCI-H460): > 100 µM (inactive)
GI50 (NCI-H522): > 100 µM (inactive)
GI50 (ACHN): > 100 µM (inactive)
GI50 (LXFL 529): > 100 µM (inactive)
GI50 (UACC-257): > 100 µM (inactive)
GI50 (SW-620): > 100 µM (inactive)
GI50 (COLO 205): > 100 µM (inactive)
GI50 (KM-20L2): > 100 µM (inactive)
GI50 (SR): > 100 µM (inactive)
GI50 (CCRF-CEM): > 100 µM (inactive)
GI50 (K562): > 100 µM (inactive)
GI50 (NCI-H23): > 100 µM (inactive)
GI50 (RXF 631): > 100 µM (inactive)
GI50 (SK-OV-3): > 100 µM (inactive)
GI50 (LOX IMVI): > 100 µM (inactive)
GI50 (Malme-3M): > 100 µM (inactive)
GI50 (SF-295): > 100 µM (inactive)
GI50 (SNB-75): > 100 µM (inactive)
GI50 (HCT-15): > 100 µM
GI50 (SK-MEL-2): > 100 µM (inactive)
GI50 (HOP-92): 70.3 µM (inactive)
GI50 (HCC 2998): > 100 µM (inactive)
GI50 (MOLT-4): > 100 µM (inactive)
GI50 (HCT-116): > 100 µM (inactive)
GI50 (OVCAR-5): > 100 µM (inactive)
GI50 (HOP-62): > 100 µM (inactive)
GI50 (DLD-1): > 100 µM (inactive)
GI50 (UACC-62): > 100 µM (inactive)
GI50 (RPMI-8226): > 100 µM (inactive)
GI50 (U-251): > 100 µM (inactive)
GI50 (SF-268): > 100 µM (inactive)
GI50 (OVCAR-4): > 100 µM (inactive)
GI50 (OVCAR-8): > 100 µM (inactive)
GI50 (DMS-114): > 100 µM (inactive)
GI50 (786-0): > 100 µM (inactive)
